Molecules are shown by their SMILES.

What all share (assay type): cell-based, mouse
One assay has as its system phosphorylation of c-Jun. The assay can be described thus: Western blot for c-Jun phosphorylation in SW1 cells. The conditions noted are these: AIGA 0.5 or 2.0 μM, CSL 0.5 or 1.0 μM, 20 h. As to the method: Immunoblot analysis. Proteins prepared from cells at the indicated time points using RIPA buffer and 75 μg were separated on SDS-PAGE followed by immunoblot analysis using the antibodies indicated. Antibodies used were as follows: anti-JNK (Santa Cruz), phospho-JNK (Promega Corp.; Madison, Wis.), phospho c-Jun (Cell Signaling Technology, Inc.; Danvers, Mass.), c-Jun (Santa Cruz Biotechnology, Inc.; Santa Cruz, Calif.) and Caspase 8 (BD Biosciences; San Jose, Calif.).
The activation of JNK by both compounds was confirmed upon analysis of its substrate c-Jun. SW1 cells were pretreated with the JNK inhibitor SP600125 followed by addition of AIGA (0.5 μM or 2.0 μM) or CSL (0.5 μM or 1.0 μM) for 20 h. Total protein extracts were used to determine the phosphorylation of c-Jun.
For orientation: A western blot detects proteins with antibodies after separation by electrophoresis.

Another assay relates to caspase 8. The assay can be described thus: Caspase 8 immunoblot in SW1 cells. The conditions noted are these: 0.5 μM AIGA, 0.5 or 1.0 μM CSL, 24 hours. As to the method: Mitochondrial activity and apoptosis. Cells were exposed to the chemicals for 12-48 hours as indicated in Results. To measure changes in mitochondrial activity reflective of general cell viability, the ATPLITE ATP detection assay was used according to the manufacturer's recommendations (Perkin Elmer). Apoptosis analysis was performed by flow cytometry of PI-stained cells. The percentage of cells to the left of the diploid G0/1 peak, characteristic of hypodiploid cells that have partially lost DNA, was calculated as percentage of apoptotic cells (Bhoumik et al., PNAS 101:4222-7, 2004). Analysis of changes in Caspase 8 expression pattern was performed using immunoblot analysis.
Immunoblot analysis. Proteins prepared from cells at the indicated time points using RIPA buffer and 75 μg were separated on SDS-PAGE followed by immunoblot analysis using the antibodies indicated. […]
The finding that CSL and AIGA reduced cell viability in melanoma was made using the ATPLITE assay, which monitors the degree of mitochondrial ATP release, a marker for mitochondrial activity. […] Immunoblot analysis using caspase 8 antibody monitored full length and cleaved forms (active) of caspase 8. β-actin was used as a loading control.

Assay [1] has as its system NF-κB transcriptional activity. The assay can be described thus: 2-NFκ-B-luciferase reporter assay in SW1 cells. The settings on record: 8 h. As to the method:
Constructs and inhibitors. An ATF2 peptide (aa 51-100) was cloned into HA-tagged pcDNA3 vector as previously described (Bhoumik et al., Cancer Res 64:8222-30, 2004). 5×Jun2tk-Luc (marker for ATF2 transcriptional activities), 5×TRE-tk-Luc (marker for AP1/c-Jun transcriptional activities) and 2×NF-B-Luc were previously described (Bhoumik et al., J Clin Invest 110:643-50, 2002). Pharmacological inhibitor of JNK (SP600125) was purchased (EMD biosciences) and added (5 μM) to cultured cells as indicated in Results.
Transcriptional analysis. Transient transfection of different reporter constructs into melanoma cells was performed using LIPOFECTAMINE PLUS transfection reagent (Invitrogen). Luciferase activity was determined as previously described (Bhoumik et al., PNAS 101:4222-7, 2004).
To assess whether CSL may affect the transcriptional activities of genes other than ATF2 and c-Jun, possible changes in transcriptional activities of NF-κB were monitored. Transcriptional activation of NFκ-B was assessed using the 2-NFκ-B-luciferase assay. Briefly, SW1 cells were transfected with the 2-NFκ-B-luciferase plasmid and 24 h later, cells were treated with the indicated concentrations of AIGA or CSL for 8 h before proteins were prepared and level of luciferase activity was measured. ATF250-100 peptide was used as a positive control. Data shown represent results from 2 experiments. […]
(In general: In a reporter assay the amount or activity of a reporter protein is the signal.)

`CC(=O)Oc1c2c(c(CC=C(C)C)c3c1C(=O)C1=C[C@@H]4CC5C(C)(C)OC(C/C=C(\C)C(=O)O)(C4=O)[C@@]15O3)OC(C)(CCC=C(C)C)C=C2` (stereo partly drawn) [AIGA, Acetyl isogambogic acid]: the c-Jun phosphorylation entry in the assay on phosphorylation of c-Jun is “efficiently induced c-Jun phosphorylation”. In the assay on caspase 8, the “cleaved (active) forms of caspase 8” value is “increase in intensity of the cleaved forms caspase 8”. In addition, the NF-κB transcriptional activity entry in assay [1] is “dose-dependent inhibition”.

Turning to `CC1=C(O)C(=O)C=C2C1=CC=C1[C@@]2(C)CC[C@@]2(C)[C@@H]3C[C@](C)(C(=O)O)CC[C@]3(C)CC[C@]12C` [Celastrol], the c-Jun phosphorylation entry in the assay with phosphorylation of c-Jun is “efficiently induced c-Jun phosphorylation, with CSL being more potent”. Moreover, the “cleaved (active) forms of caspase 8” value in the assay on caspase 8 is “increase in intensity of the cleaved forms caspase 8”. In addition, the NF-κB transcriptional activity result in assay [1] is listed as “dose-dependent inhibition”.
